Results as given in ChEMBL document CHEMBL1128170, “Stereochemistry of the benzodiazepine based Ras farnesyltransferase inhibitors” (Bioorg Med Chem Lett, 1995).

Biological target: Protein farnesyltransferase (Rattus norvegicus, UniProt Q02293+Q04631)
Experiment: Tested for inhibitory activity against rat brain p21ras Ras Farnesyltransferase (FTase)

Compound	IC50
CSCC[C@H](NC(=O)CN1C(=O)[C@H](N(C)C(=O)[C@@H](N)CS)N=C(c2ccccc2)c2ccccc21)C(=O)O (stereo in doubt; form 3)	2.1 nM
CSCC[C@H](NC(=O)CN1C(=O)[C@H](N(C)C(=O)[C@@H](N)CS)N=C(c2ccccc2)c2ccccc21)C(=O)O (stereo in doubt; form 1)	370 nM
CSCC[C@@H](NC(=O)CN1C(=O)[C@H](N(C)C(=O)[C@@H](N)CS)N=C(c2ccccc2)c2ccccc21)C(=O)O	80 nM
CSCC[C@H](NC(=O)CN1C(=O)[C@H](N(C)C(=O)[C@@H](N)CS)N=C(c2ccccc2)c2ccccc21)C(=O)O (stereo in doubt; form 2)	0.85 nM
